Data from patent US10092515B2, “Liposomal formulations of polymyxin B and uses thereof” (University of Houston System, priority 2012, dated 2018).

Assays:
[1] = tested on: P. aeruginosa ATCC 27853 (PA 27853); details: PA 27853, previously determined; cited from earlier work
[2] = tested on: multiple drug resistant (MDR) Pseudomonas aeruginosa strain (PA 9019); details: PA 9019, previously determined; cited from earlier work
[3] = Polymyxin B pharmacokinetics in megalin-shedding rats (serum and renal tissue); format: in vivo, Sprague-Dawley rats; details: for AUC0-∞, renal tissue/AUC0-∞, serum ratio / AUC0-∞, renal tissue / AUC0-∞, serum / renal tissue polymyxin B concentration (3 h postdosing): rats, 3 mg/kg IV
Method: (§1) A validated ultraperformance liquid chromatography-tandem mass spectrometry (UPLC/MS-MS) method was modified to determine the concentrations of polymyxin B in rat serum and renal tissues, as previously described (32). The lower limit of quantification (LLOQ) was 50 ng/ml for all the major components of polymyxin B in serum as well as the renal tissue homogenate.
To study the impact of sodium maleate pretreatment on systemic/renal exposure of polymyxin B, the rats were divided into two groups (n=13 each). Animals in both control and experimental groups were administered a single intravenous dose of 3 mg/kg of polymyxin B sulfate (USP). The intravenous route of polymyxin B administration was preferred to avoid any interference with drug absorption at the injection site. In addition, the animals in the experimental group were given 400 mg/kg of sodium maleate intraperitoneally 3 to 6 h prior to polymyxin B administration. Serum samples were obtained at 1.5, 3, 4.5, 6, and 7.5 h after polymyxin B dosing. In addition, the rats were sacrificed to harvest the kidneys at 3, 6, and 24 h (n=3 at each time point) postdosing. Polymyxin B concentrations in serum and renal tissue samples were assayed by the validated UPLC-MS/MS method detailed above.
The mean concentrations of polymyxin B in serum, as well as in renal tissue samples, at each time point were used. A modified two-compartment model (data not shown) was used to cofit the serum/renal tissue concentration-time profiles using ADAPT 5 (University of Southern California, Los Angeles, Calif.). Using the best-fit parameters, the AUC0-∞ was estimated by integrating instantaneous concentrations with respect to time. The AUC0-∞, renal tissue/AUC0-∞, serum ratio was used as an index to quantitatively assess preferential accumulation of polymyxin B in renal tissue.
To further examine whether the effect of sodium maleate on the renal accumulation of polymyxin B is transient, three additional rats were given a single dose of 400 mg/kg of sodium maleate intraperitoneally. Two weeks later, the animals were given a single dose of 3 mg/kg of polymyxin B intravenously. The rats were sacrificed at 3 h postdosing; kidneys were harvested and homogenized. Polymyxin B concentrations in renal tissue samples were assayed by the validated UPLC-MS/MS method.

[4] = Renal tissue concentration of polymyxin B at escalating dose levels; format: in vivo, Sprague-Dawley rats; details: rats, 24 h after first dose, summed components
Method: as §1
To determine the renal tissue concentration of polymyxin B, three rats from each dosing group were randomly selected and sacrificed at 24 h after the first dose; kidneys were harvested and homogenized. A fixed time point was selected to avoid any potential confounding due to different cumulative doses received when nephrotoxocity was observed. The concentrations of the major components of polymyxin B (polymyxin B1, polymyxin B2, polymyxin B3, and isoleucine polymyxin B1) were determined in […] as described above.
For the purpose of drug quantification in the renal tissue homogenates, the estimated concentrations were divided by the total weight of the kidney and the final concentrations were expressed per gram of renal tissue (in micrograms/gram). The summed concentrations of individual components were used to estimate the overall renal drug exposure (33). One-way analysis of variance (ANOVA) and then post hoc Tukey's test were used to compare the mean renal tissue concentrations among the dosing groups, and P values of <0.05 were considered significant.

[5] = Onset of nephrotoxicity (serum creatinine >=2-fold baseline) at escalating daily doses; format: in vivo, Sprague-Dawley rats; details: rats
Excerpt: Female Sprague-Dawley rats (225 to 250 g) (Harlan, Indianapolis, Ind.) were used. The rats received food and water ad libitum. All animals were cared for in accordance with the highest humane and ethical standards, as approved by the Institutional Animal Care and Use Committee (IACUC) of the University of Houston. The jugular veins of selected animals were cannulated to facilitate intravenous drug administration.
Prior to each experiment, polymyxin B for injection (USP) was reconstituted with sterile water for injection (USP) and diluted to achieve the desired concentration. The reconstituted drug solution was stored at −80° C. in aliquots and thawed immediately before dosing.
To mimic a clinical course of polymyxin B treatment, three groups of rats (n=13 each) were administered escalating dose levels of polymyxin B (5 mg/kg, 10 mg/kg, and 20 mg/kg, respectively) once daily subcutaneously for up to 7 days. Blood samples (approximately 200 μl) were drawn via the tail vein at baseline and on a daily basis (before dosing when applicable). Blood was allowed to clot on ice, and serum was separated by centrifugation at 4,000×g for 10 min. Serum samples (100 μl) were further assayed for creatinine levels by use of a clinical chemistry analyzer (Piccolo Xpress; Abaxis, Inc., Union City, Calif.). A significant elevation in serum creatinine (≥2-fold […] the baseline level) was set as the endpoint for nephrotoxicity. Kaplan-Meier survival analysis and a log rank (Mantel-Cox) test were used to compare the times of onset of nephrotoxicity among various groups. Right censoring was used if the nephrotoxicity endpoint was not observed by day 7.

[6] = experimental group: 400 mg/kg sodium maleate i.p. 3 to 6 h before

Polymyxin B
minimum inhibitory concentration (MIC) [1]: 2 µg/mL
minimum inhibitory concentration (MIC) [2]: 4 µg/mL
attenuation of polymyxin B exposure in renal tissue after pretreatment with maleate ([3]; megalin-shedding rats vs control): approximately 40%
AUC0-∞, renal tissue/AUC0-∞, serum ratio ([3]; control group): 19.1
AUC0-∞, renal tissue ([3]; control group (no maleate)): 211900 ng·h/mL
AUC0-∞, serum ([3]; control group (no maleate)): 10400 ng·h/mL
renal tissue polymyxin B concentration (3 h postdosing) ([3]; control rats): 11.45 µg/g
AUC0-∞, renal tissue/AUC0-∞, serum ratio ([3]; experimental group (maleate pretreatment)): 11.6
AUC0-∞, renal tissue [3, 6]: 121000 ng·h/mL
AUC0-∞, serum [3, 6]: 11100 ng·h/mL
renal tissue polymyxin B concentration (3 h postdosing) ([3]; sodium maleate 400 mg/kg given 2 weeks earlier): 11.08 µg/g
concentration of polymyxin B in renal tissue ([4]; 5-mg/kg dosing group): 3.6 ± 0.4 µg/g
concentration of polymyxin B in renal tissue ([4]; 10-mg/kg dosing group): 9.9 ± 1.5 µg/g
concentration of polymyxin B in renal tissue ([4]; 20-mg/kg dosing group): 21.7 ± 4.8 µg/g
animals that reached the predefined nephrotoxicity endpoint by day 7 ([5]; 5 mg/kg once daily subcutaneously up to 7 days): none
animals that reached the nephrotoxicity endpoint within the first 48 h of treatment ([5]; 10 mg/kg daily subcutaneously): 1 out of 10
animals that reached the nephrotoxicity endpoint within the first 48 h of treatment ([5]; 20 mg/kg daily subcutaneously): 8 out of 10
animals that reached the predefined nephrotoxicity endpoint (serum creatinine >=2-fold baseline) ([5]; 20 mg/kg once daily subcutaneously up to 7 days): 10 out of 10
